In US20130203861A1, “METHODS AND COMPOSITIONS FOR TREATING OVARIAN CANCER” (GOLDEN BIOTECHNOLOGY CORPORATION, priority 2009, published 2013):
Converted amounts (≈) assume the structure as drawn.

Tested on: ovarian cancer cell line ES-2
Assay: MTT assay for anti-ovarian cancer (cell survival)
Type: cell-based
Conditions: Homo sapiens, ES-2 cells, 48 hours treatment, absorbance at 570 nm, read-out: IC50 (half inhibition concentration), inhibition of ovarian cancer cells
Procedure: Exemplary Compound 1 was added into the culture media of ovarian cancer cell line ES-2 (a human ovarian cancer cell line) to determine the survival rates. Survival of cells was analyzed using MTT assay. Other suitable human ovarian cancer cell lines may be used by a skilled person in the art.
MTT assay is commonly used to analyze cell proliferation, survival rate of viable cells and cytotoxicity. MTT (3[4,5-dimethylthiazol-2-yl]-2,5-diphenyltetrazolium bromide) is a yellow dye which can be converted to water-insoluble purple formazan on the reductive cleavage of its tetrazolium ring by the succinate tetrazolium reductase in mitochondria of cells. The amount of formazan produced is used to detect the number of viable cells and calculate the survival rates.
The ES-2 cells were cultivated in McCoy' 5 A medium supplemented with 10% fetal bovine serum, 10 U/ml of Penicillin and 100 μg/ml of Streptomycin at 37° C., 5% CO2 for 24 hours. Proliferated cells were washed once with PBS, treated with 1× trypsin-EDTA, and centrifuged at 1200 rpm for 5 min. The supernatant was removed and the cell pellet was resuspended in 10 ml of fresh medium by gently shaking. Cells were seeded onto 96-well plates. […] The absorbances were measured at 570 nm with an ELISA Reader to determine the survival rates.

Work on `COC1=C(OC)C(O)C(C/C=C(\C)CC/C=C(\C)CCC=C(C)C)C(C)C1=O` (stereo not shown) [Compound 1, 4-hydroxy-2,3-dimethoxy-6-methyl-5-(3,7,11-trimethyldodeca-2,6,10-trienyl)cyclohex-2-enone] yielded an IC50 of 0.8 µg/mL (≈ 2.05 µM).
